Experimental data: ChEMBL document CHEMBL5291721, “A preclinical secondary pharmacology resource illuminates target-adverse drug reaction associations of marketed drugs” (Nat Commun, 2023)

Tests used:
Adenosine receptor A1 = target: T1, Adenosine receptor A1 (Homo sapiens, UniProt P30542)
T1 sequence (P30542 whole entry): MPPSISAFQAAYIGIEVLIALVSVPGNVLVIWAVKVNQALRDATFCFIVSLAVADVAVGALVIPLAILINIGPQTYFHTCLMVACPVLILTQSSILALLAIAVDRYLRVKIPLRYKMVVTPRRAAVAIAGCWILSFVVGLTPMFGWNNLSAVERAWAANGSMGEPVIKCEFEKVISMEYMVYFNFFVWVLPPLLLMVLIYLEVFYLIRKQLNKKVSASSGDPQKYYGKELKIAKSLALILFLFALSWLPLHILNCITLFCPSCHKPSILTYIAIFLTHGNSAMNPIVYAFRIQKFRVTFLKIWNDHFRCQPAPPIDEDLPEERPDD

Adenosine receptor A2a = Adenosine receptor A2a (Homo sapiens, UniProt P29274)
[1] = target: T2, Alpha-2C adrenergic receptor (Homo sapiens, UniProt P18825); format: functional
T2 sequence (P18825 whole entry): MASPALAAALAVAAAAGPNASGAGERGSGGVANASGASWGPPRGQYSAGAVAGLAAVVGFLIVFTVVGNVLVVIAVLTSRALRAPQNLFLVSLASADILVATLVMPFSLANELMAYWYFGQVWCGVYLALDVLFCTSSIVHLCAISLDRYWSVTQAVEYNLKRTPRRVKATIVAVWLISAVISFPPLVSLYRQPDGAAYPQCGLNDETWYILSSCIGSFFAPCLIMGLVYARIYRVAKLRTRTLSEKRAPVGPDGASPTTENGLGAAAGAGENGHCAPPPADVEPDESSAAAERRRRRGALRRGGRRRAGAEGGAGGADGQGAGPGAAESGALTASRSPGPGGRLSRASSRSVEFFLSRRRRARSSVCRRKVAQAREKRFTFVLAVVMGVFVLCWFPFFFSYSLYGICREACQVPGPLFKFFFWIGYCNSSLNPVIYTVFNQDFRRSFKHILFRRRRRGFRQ

[2] = target: T3, Type-1 angiotensin II receptor (Homo sapiens, UniProt P30556)
T3 sequence (P30556 whole entry): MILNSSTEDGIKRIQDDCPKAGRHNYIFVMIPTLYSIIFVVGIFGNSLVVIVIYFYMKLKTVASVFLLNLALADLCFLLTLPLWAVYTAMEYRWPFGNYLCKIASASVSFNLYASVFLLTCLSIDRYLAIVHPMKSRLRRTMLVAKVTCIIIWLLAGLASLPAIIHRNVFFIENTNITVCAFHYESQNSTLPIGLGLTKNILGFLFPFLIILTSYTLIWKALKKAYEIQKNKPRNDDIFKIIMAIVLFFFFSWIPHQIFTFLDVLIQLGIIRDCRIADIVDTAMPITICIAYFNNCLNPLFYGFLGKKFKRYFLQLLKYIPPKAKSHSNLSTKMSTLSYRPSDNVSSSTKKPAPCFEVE

[3] = target: T4, Cholecystokinin receptor type A (Homo sapiens, UniProt P32238)
T4 sequence (P32238 whole entry): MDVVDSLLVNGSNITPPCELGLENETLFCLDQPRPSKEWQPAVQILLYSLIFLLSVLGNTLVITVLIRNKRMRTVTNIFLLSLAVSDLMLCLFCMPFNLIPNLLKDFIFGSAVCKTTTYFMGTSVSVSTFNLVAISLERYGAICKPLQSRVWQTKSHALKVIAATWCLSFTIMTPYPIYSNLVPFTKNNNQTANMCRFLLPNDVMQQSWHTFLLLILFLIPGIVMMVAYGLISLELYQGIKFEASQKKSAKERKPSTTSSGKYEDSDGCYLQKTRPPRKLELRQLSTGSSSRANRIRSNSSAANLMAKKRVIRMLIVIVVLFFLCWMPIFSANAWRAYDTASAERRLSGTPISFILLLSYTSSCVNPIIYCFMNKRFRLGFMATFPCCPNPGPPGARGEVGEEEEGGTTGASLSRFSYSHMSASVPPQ

[4] = target: T5, Muscarinic acetylcholine receptor M2 (Homo sapiens, UniProt P08172); format: functional, cell-based
T5 sequence (P08172 whole entry): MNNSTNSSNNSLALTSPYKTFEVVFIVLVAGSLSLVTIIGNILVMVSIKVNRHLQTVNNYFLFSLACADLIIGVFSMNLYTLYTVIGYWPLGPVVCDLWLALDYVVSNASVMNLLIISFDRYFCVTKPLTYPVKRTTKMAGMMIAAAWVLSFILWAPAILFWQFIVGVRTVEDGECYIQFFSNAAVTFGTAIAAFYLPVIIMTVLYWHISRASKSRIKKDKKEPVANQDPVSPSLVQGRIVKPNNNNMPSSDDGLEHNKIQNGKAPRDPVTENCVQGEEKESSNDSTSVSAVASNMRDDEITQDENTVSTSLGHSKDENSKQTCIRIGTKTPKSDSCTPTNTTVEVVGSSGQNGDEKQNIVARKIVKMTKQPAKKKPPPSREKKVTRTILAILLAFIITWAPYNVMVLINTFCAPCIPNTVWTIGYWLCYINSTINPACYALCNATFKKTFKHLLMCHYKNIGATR

[5] = target: T5, Muscarinic acetylcholine receptor M2; format: functional, cell-based; remark: listed apart in the source
[6] = target: Growth hormone secretagogue receptor type 1 (Homo sapiens, UniProt Q92847)
Melanocortin receptor 3 = Melanocortin receptor 3 (Homo sapiens, UniProt P41968)
[7] = target: Delta-type opioid receptor (Homo sapiens, UniProt P41143)
[8] = target: T6, Equilibrative nucleoside transporter 1 (Homo sapiens, UniProt Q99808)
T6 sequence (Q99808 whole entry): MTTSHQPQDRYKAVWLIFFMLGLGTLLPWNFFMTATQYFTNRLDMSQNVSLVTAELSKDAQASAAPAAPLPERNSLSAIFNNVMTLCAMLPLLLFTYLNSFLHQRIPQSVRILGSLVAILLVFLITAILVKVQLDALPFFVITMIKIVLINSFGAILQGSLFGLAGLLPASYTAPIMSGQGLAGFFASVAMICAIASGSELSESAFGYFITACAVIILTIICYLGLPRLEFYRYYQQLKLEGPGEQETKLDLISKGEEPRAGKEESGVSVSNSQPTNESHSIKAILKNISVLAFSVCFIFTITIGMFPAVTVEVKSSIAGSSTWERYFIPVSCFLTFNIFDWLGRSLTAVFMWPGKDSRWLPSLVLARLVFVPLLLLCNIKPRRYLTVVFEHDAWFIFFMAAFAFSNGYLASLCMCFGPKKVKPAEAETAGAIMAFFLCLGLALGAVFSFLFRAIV

[9] = target: cGMP-inhibited 3',5'-cyclic phosphodiesterase 3A (Homo sapiens, UniProt Q14432); format: functional
Note: assay procedure not described here.

Sequence of Melanocortin receptor 3 (P41968 whole entry): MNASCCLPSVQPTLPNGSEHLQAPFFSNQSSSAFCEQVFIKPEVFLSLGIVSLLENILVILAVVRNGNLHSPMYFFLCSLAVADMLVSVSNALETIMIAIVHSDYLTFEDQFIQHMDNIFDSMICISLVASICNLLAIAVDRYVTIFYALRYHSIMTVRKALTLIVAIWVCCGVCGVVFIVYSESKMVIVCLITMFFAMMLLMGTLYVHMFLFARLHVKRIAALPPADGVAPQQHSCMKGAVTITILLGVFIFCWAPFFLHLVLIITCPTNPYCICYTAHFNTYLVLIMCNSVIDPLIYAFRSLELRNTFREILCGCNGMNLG
Sequence of Adenosine receptor A2a (P29274 whole entry): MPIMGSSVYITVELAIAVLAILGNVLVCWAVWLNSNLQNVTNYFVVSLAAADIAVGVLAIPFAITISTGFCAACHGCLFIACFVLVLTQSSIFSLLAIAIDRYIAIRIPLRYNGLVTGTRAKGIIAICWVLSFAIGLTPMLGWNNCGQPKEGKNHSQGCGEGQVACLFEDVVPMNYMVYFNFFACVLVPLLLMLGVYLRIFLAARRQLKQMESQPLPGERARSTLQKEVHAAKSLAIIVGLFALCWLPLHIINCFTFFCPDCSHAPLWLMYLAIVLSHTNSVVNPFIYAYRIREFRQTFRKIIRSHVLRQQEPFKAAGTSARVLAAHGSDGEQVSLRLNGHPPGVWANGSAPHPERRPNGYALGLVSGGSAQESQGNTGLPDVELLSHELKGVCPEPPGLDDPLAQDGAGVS
Sequence of cGMP-inhibited 3',5'-cyclic phosphodiesterase 3A (Q14432 whole entry): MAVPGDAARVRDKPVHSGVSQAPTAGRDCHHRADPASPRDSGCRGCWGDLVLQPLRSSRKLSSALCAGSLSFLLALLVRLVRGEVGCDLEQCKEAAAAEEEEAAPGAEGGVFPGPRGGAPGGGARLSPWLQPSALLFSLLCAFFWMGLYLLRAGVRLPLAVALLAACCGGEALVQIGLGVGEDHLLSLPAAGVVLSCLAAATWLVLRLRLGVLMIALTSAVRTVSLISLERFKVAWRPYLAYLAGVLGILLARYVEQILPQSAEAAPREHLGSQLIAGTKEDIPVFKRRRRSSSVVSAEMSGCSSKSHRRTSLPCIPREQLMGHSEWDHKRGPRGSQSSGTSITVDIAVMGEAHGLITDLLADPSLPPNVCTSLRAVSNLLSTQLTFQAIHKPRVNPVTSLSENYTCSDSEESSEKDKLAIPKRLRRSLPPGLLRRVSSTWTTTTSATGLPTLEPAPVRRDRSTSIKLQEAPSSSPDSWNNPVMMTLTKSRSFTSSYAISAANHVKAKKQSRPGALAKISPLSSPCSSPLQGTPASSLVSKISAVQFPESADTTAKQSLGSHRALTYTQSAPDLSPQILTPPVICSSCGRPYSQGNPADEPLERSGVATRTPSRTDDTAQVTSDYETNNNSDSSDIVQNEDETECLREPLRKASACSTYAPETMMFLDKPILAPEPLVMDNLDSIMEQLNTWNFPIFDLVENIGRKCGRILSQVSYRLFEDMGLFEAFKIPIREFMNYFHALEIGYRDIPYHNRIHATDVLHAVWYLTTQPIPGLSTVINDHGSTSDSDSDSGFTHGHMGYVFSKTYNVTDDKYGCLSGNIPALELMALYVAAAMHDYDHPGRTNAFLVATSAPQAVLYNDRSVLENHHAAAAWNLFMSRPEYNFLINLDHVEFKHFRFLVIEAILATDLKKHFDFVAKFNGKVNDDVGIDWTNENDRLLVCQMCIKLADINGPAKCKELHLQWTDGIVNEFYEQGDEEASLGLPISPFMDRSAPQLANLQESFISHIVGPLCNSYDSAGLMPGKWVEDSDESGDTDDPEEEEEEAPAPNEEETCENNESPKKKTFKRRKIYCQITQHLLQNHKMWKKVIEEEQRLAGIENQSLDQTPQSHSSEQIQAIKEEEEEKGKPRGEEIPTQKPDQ
Sequence of Growth hormone secretagogue receptor type 1 (Q92847 whole entry): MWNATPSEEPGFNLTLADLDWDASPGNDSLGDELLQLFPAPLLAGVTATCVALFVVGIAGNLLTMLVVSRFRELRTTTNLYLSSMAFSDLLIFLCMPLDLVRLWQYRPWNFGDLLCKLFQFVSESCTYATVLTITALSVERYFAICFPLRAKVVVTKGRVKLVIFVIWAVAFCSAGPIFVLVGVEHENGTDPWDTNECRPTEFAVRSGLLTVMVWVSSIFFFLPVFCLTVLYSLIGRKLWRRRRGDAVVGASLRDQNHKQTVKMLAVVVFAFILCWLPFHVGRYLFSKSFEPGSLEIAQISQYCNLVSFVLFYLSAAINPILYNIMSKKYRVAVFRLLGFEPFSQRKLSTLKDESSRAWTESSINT
Sequence of Delta-type opioid receptor (P41143 whole entry): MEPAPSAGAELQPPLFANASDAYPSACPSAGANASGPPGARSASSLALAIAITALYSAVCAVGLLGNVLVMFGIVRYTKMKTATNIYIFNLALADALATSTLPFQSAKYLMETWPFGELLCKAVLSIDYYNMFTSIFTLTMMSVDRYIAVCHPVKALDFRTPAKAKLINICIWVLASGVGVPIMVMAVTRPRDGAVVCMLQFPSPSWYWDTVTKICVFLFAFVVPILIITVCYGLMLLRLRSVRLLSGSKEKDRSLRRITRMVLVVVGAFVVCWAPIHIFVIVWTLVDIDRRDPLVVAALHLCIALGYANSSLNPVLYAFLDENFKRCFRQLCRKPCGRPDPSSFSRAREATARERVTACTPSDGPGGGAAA

SMILES | AC50 (Adenosine receptor A1) [µM] | AC50 (Adenosine receptor A2a) [µM] | AC50 [1] [µM] | AC50 [2] [µM] | AC50 [3] [µM] | AC50 [4] [µM] | AC50 [5] [µM] | AC50 [6] [µM] | AC50 (Melanocortin receptor 3) [µM] | AC50 [7] [µM] | AC50 [8] [µM] | AC50 [9] [µM]
C[C@H]1CNCCc2ccc(Cl)cc21 [LORCASERIN] | > 30 | > 30 | 3.6 | > 30 | > 30 | > 30 | > 30 | > 30 | > 30 | > 30 | > 30 | > 30
CN1C(C(=O)Nc2ccccn2)=C(O)c2sc(Cl)cc2S1(=O)=O [LORNOXICAM] | > 30 | > 30 | > 10 | > 30 | > 30 | > 10 | > 10 | > 30 | > 30 | > 30 | > 30 | > 30
Cc1cccc(Nc2ccccc2C(=O)O)c1C [MEFENAMIC ACID] | > 10 | > 10 | > 10 | > 10 | > 10 | > 10 | > 10 | > 10 | > 10 | > 30 | > 10 | > 30
C[C@@H](O)[C@H]1C(=O)N2C(C(=O)O)=C(S[C@@H]3CN[C@H](C(=O)N(C)C)C3)[C@H](C)[C@H]12 [MEROPENEM] | > 300 | > 300 | > 300 | > 300 | > 300 | > 300 | > 300 | > 300 | > 300 | > 300 | > 300 | > 300
CNC1Cc2ccccc2N(C)c2ccccc21 (stereo not drawn) [METAPRAMINE] | > 30 | > 30 | 26 | > 30 | > 30 | > 30 | > 30 | > 30 | > 30 | > 30 | > 30 | > 30
Clc1ccc(C(c2ccccc2Cl)C(Cl)Cl)cc1 (stereo not drawn) [MITOTANE] | > 10 | > 10 | > 10 | > 10 | > 10 | > 10 | > 10 | > 10 | > 10 | > 30 | > 10 | > 30
CC1(C)NC(=O)N(c2ccc([N+](=O)[O-])c(C(F)(F)F)c2)C1=O [NILUTAMIDE] | > 30 | > 30 | > 30 | > 30 | > 30 | > 30 | > 30 | > 30 | > 30 | > 30 | > 30 | > 30
CC[C@H]1[C@@H](O)[C@@H]2[C@H](CC[C@]3(C)[C@@H]([C@H](C)CCC(=O)O)CC[C@@H]23)[C@@]2(C)CC[C@@H](O)C[C@@H]12 [OBETICHOLIC ACID] | > 30 | > 30 | > 30 | > 30 | > 30 | > 30 | 16 | > 30 | > 30 | > 30 | > 30 | > 30
COc1ccc(CC(C)(C)NC[C@H](O)c2cc(O)cc3c2OCC(=O)N3)cc1 [OLODATEROL] | > 30 | > 30 | > 30 | > 30 | > 30 | > 30 | 5.1 | > 30 | > 30 | > 30 | > 30 | > 30
CCCN1C[C@H](CSC)C[C@@H]2c3cccc4[nH]cc(c34)C[C@H]21 [PERGOLIDE] | > 30 | > 30 | 1.04 | > 30 | > 30 | > 30 | > 30 | > 30 | > 30 | > 30 | > 30 | > 30
c1cnc(N2CCN(Cc3ccc4c(c3)OCO4)CC2)nc1 [PIRIBEDIL] | > 30 | > 30 | 0.96 | > 30 | > 30 | > 30 | > 30 | 30 | > 30 | > 30 | > 30 | > 30
COCCCN1CCC(NC(=O)c2cc(Cl)c(N)c3c2OCC3)CC1 [PRUCALOPRIDE] | > 30 | > 30 | 14 | > 30 | > 30 | > 30 | > 30 | > 30 | > 30 | > 30 | > 30 | > 30
COc1ccccc1OCC(O)CN1CCN(CC(=O)Nc2c(C)cccc2C)CC1 (stereo not drawn) [RANOLAZINE] | > 30 | > 30 | 1.4 | > 30 | > 30 | > 30 | > 30 | > 30 | > 30 | > 30 | > 30 | > 30
CS(=O)(=O)c1ccc(C2=C(c3ccccc3)C(=O)OC2)cc1 [ROFECOXIB] | > 30 | > 30 | > 10 | > 30 | > 30 | > 30 | > 30 | > 30 | > 30 | > 10 | > 30 | > 30
